Entries after “also recorded” stand apart in the source; their conditions may differ.
Key:
[1] = system: INS-1 insulin-secreting β-cells; test: Insulin secretion in INS-1 cells under low-glucose (1.4 mmol·L^−1) condition; type: cell-based; conditions: 1.4 mmol·L^−1 glucose; maximal concentration tested 20
Protocol: (§1) The insulin-secreting cell line INS-1 (a gift from Professor C. B. Wollheim) was cultured in RPMI-1640, supplemented with 10% fetal calf serum (FCS), 100 U·mL^−1 penicillin, 100 μg·mL^−1 streptomycin, 2 mmol·L^−1 L-glutamine, 10 mmol·L^−1 HEPES, 1 mmol·L^−1 sodium pyruvate, and […] 2-mercaptoethanol, as previously described by Youl et al. (2010). Cells were seeded in 24-well plates (4×10^5 cells per well) and were used for experiments after 5 days of culture.
(§2) Before the treatment, RPMI medium was removed and the cells were washed twice with HEPES-balanced Krebs-Ringer bicarbonate buffer (KRB) containing (in mmol·L^−1): 123 NaCl, 5.4 KCl, 1.3 KH2PO4, 2.7 MgSO4, 2.9 CaCl2, 5 NaHCO3 and 20 HEPES, pH 7.5, with 2 g·L^−1 bovine serum albumin (KRB/BSA). Cells were incubated for 1 h (5% CO2, 37° C.) in KRB medium containing 8.3 mmol·L^−1 glucose (glucose-stimulated secretion) in the presence or absence of the compounds tested. At the end of the 1 h incubation period, the medium was sampled and stored at −20° C. until the insulin assay. Insulin concentration in cell supernatants was determined using the homogeneous time resolved fluorescence technology (HTRF), according to the manufacturer's instructions (HTRF insulin assay kit, Cisbio International, Bagnols-sur-Ceze, France). Briefly, two anti-insulin antibodies were used; one labelled with Eu^3+-Cryptate and one labelled with XL665 recognizing distinct epitopes. When these two fluorophores bind to insulin molecules, the two antibodies come into close proximity, allowing fluorescence resonance energy transfer (FRET) to occur between the Eu^3+-Cryptate and the XL665. This FRET increases proportionally with the insulin concentrations. All the experiments were performed at least in quadruplicate.
Material and methods were the same as described in example 1. For the determination of insulin secretion, cells were incubated for 1 h (5% CO2, 37° C.) in KRB medium containing either 1.4 mmol·L^−1 glucose (low-glucose) or 8.3 mmol·L^−1 glucose (glucose-stimulated secretion) in the presence or absence of the compounds tested. At the end of the 1 h incubation period, mediums were sampled and stored at −20° C. until the insulin assay. Insulin concentration in cell supernatants was determined as described in Example 1.

[2] = system: INS-1 insulin-secreting β-cells; test: Exendin + glucose-stimulated insulin secretion in INS-1 cells; type: cell-based; conditions: 8.3 mmol·L^−1 glucose + 0.001 μmol·L^−1 exendin; for maximal response, stimulation as compared to exendin alone: 20
Protocol: as §1, §2
Material and methods were the same as described in example 1. For the determination of insulin secretion, cells were incubated for 1 h (5% CO2, 37° C.) in KRB medium containing 8.3 mmol·L^−1 glucose (glucose-stimulated condition) and exendin (0.001 μmol·L^−1) in the presence or absence of the compounds tested. Data were expressed as percent of exendin (0.001 μmol·L^−1)+glucose (8.3 mmol·L^−1)-stimulated insulin secretion (“control 100%”) (FIGS. 4A-D).

[3] = system: rat isolated perfused pancreas; test: Insulin secretion in the rat isolated perfused pancreas; conditions: for AUC of insulin produced above the basal level: urolithins 10 μM
Protocol: Pancreas was isolated from male Wistar rats of 250-300 g body weight under pentobarbital anaesthesia (60 mg/kg i.p.). Previously described technique (Cadene et al., 1996) was used to isolate the pancreas from neighboring tissues. The organ was then transferred into a plastic chamber maintained at 37.5° C. Perfusion medium was Krebs-Ringer bicarbonate buffer containing 2 g/l bovine serum albumin and 5 mmol·L^−1 (non stimulant condition) or 8.3 mmol·L^−1 (stimulant condition) glucose, and continuously bubbled with a mixture of 95% O2/5% CO2. Infusion pressure was selected to provide a pancreatic outflow of 2.5 ml/min. The first sample was taken 30 min after initiation of perfusion to allow for an adaptation period. Two additional control samples were collected 10 and 15 min later, immediately followed by switching to the same buffer containing urolithins (10 μmol·L^−1). Pancreatic effluents were then collected at the following times (minutes): 17, 18, 19, 20, 21, 27, 32, 42. Pancreas was then washed using the same buffer in the absence of urolithin. Two additional samples were taken 5 and 15 min after urolithin withdrawal.
All samples were collected for 1 min allowing determinations of pancreatic effluent output, and immediately frozen for insulin assay (Cisbio HTRF method). Insulin output rate (ng/min) was calculated by multiplying the hormone concentration (ng/ml) in the effluent by the corresponding flow rate (ml/min).
Amplitude of stimulation of insulin secretion by urolithins was estimated by calculating the Area Under the Curve (AUC) of insulin produced above the basal level (trapezoidal rule). Before administration of urolithins, insulin secretion levels were 3.39±0.58 ng/min (n=14 pancreases) and 67.5±7.80 ng/min (n=15 pancreases), for 5 mmol·L^−1 and 8.3 mmol·L^−1 glucose, respectively.

[4] = system: INS-1 insulin-secreting β-cells; test: Glucose (8.3 mmol·L^−1)-stimulated insulin secretion in INS-1 cells (HTRF insulin assay); type: cell-based; conditions: for ability to amplify glucose-stimulated insulin secretion: blind screening, 2 and 20 μM; for % control response (glucose-stimulated insulin secretion): control = glucose alone; for degree of stimulation of insulin secretion: summary over the different insulin secretion conditions in INS-1 cells, 20 μmol·L^−1
Protocol: Cells were seeded in 24-well plates (4×10^5 cells per well) and were used for experiments after 5 days of culture.
as §2, with “Cells” for “Before the treatment, RPMI medium was removed and the cells were washed twice with HEPES-balanced Krebs-Ringer bicarbonate buffer (KRB) containing (in mmol·L^−1): 123 NaCl, 5.4 KCl, 1.3 KH2PO4, 2.7 MgSO4, 2.9 CaCl2, 5 NaHCO3 and 20 HEPES, pH 7.5, with 2 g·L^−1 bovine serum albumin (KRB/BSA). Cells”
For the determination of insulin secretion, cells were incubated for 1 h (5% CO2, 37° C.) in KRB medium containing either 1.4 mmol·L^−1 glucose (low-glucose) or 8.3 mmol·L^−1 glucose (glucose-stimulated secretion) in the presence or absence of the compounds tested. At the end of the 1 h incubation period, mediums were sampled and stored at −20° C. until the insulin assay.

[5] = system: INS-1 insulin-secreting β-cells; test: Glibenclamide-stimulated insulin secretion in INS-1 cells; type: cell-based; conditions: for stimulation of insulin secretion in the presence of glibenclamide: 0 to 20 μmol·L^−1
Protocol: as §1, §2
Material and methods were the same as described in example 1. For the determination of insulin secretion, cells were incubated for 1 h (5% CO2, 37° C.) in KRB medium containing 1.4 mmol·L^−1 glucose (low-glucose condition) and 0.01 μmol·L^−1 glibenclamide (glibenclamide-stimulated secretion), in the presence or absence of urolithins. At the end of the 1 h incubation period, the medium was sampled and stored at −20° C. until the insulin assay. Insulin concentration in cell supernatants was determined as described in Example 1.

[6] = compound 2 μM, 8.3 mmol·L^−1 glucose
[7] = compound 20 μM, 8.3 mmol·L^−1 glucose
[8] = 1.4 mmol·L^−1 glucose + 0.01 μmol·L^−1 glibenclamide

O=c1oc2c(O)c(O)ccc2c2cc(O)c(O)cc12 [Urolithin D, urolithin D]
stimulation of insulin secretion in low-glucose condition [1]: induced some stimulation
raise of insulin secretion in the presence of exendin and glucose [2]: induced a significant concentration-dependent stimulation of insulin secretion
maximal response, stimulation as compared to exendin alone [2]: 140%
AUC of insulin produced above the basal level [3]: 387.5 ng insulin secreted for 32 min
ability to amplify glucose-stimulated insulin secretion ([4]; 8.3 mmol·L^−1 glucose): able to amplify
% control response (glucose-stimulated insulin secretion) [4, 6]: 88.79%
% control response (glucose-stimulated insulin secretion) [4, 7]: 158.62%
degree of stimulation of insulin secretion [4]: 135-155%
stimulation of insulin secretion in the presence of glibenclamide [5]: concentration-dependently stimulated insulin secretion

O=c1oc2cc(O)ccc2c2cc(O)c(O)cc12 [Urolithin C, urolithin C]
stimulation of insulin secretion in low-glucose condition [1]: induced some stimulation
raise of insulin secretion in the presence of exendin and glucose [2]: induced a significant concentration-dependent stimulation of insulin secretion
maximal response, stimulation as compared to exendin alone [2]: about 185%
effect on insulin secretion under non-stimulating glucose condition ([3]; 10 μmol·L^−1, 5 mmol·L^−1 glucose): had no effect
effect on insulin secretion under stimulating glucose condition ([3]; 10 μmol·L^−1, 8.3 mmol·L^−1 glucose): induced a major amplification
lowest concentration inducing some stimulation of insulin secretion ([3]; stimulating glucose condition): 1 µM
AUC of insulin produced above the basal level [3]: 9160.0 ng insulin secreted for 32 min
stimulation of insulin secretion at the maximal concentration tested ([4]; 8.3 mmol·L^−1 glucose, control 100% = glucose alone): about 200%
ability to amplify glucose-stimulated insulin secretion ([4]; 8.3 mmol·L^−1 glucose): able to amplify
% control response (glucose-stimulated insulin secretion) [4, 6]: 107.14%
% control response (glucose-stimulated insulin secretion) [4, 7]: 194.64%
degree of stimulation of insulin secretion [4]: 185-200%
stimulation of insulin secretion in the presence of glibenclamide [5]: concentration-dependently stimulated insulin secretion
EC50 [5, 8]: ~5 µM
maximal response, stimulation as compared to glibenclamide alone [5, 8]: about 200%
stimulation of glibenclamide-induced response ([5]; urolithin 5 μmol·L^−1, 1.4 mmol·L^−1 glucose + 0.01 μmol·L^−1 glibenclamide): about 150%

O=c1oc2cc(O)ccc2c2ccccc12 [Urolithin B, urolithin B]
stimulation of insulin secretion in low-glucose condition [1]: induced some stimulation
raise of insulin secretion in the presence of exendin and glucose [2]: did not induce a significant raise of insulin secretion; also recorded: did not amplify exendin-stimulated insulin secretion
AUC of insulin produced above the basal level [3]: 142.0 ng insulin secreted for 32 min
ability to amplify glucose-stimulated insulin secretion ([4]; 8.3 mmol·L^−1 glucose): able to amplify
% control response (glucose-stimulated insulin secretion) [4, 6]: 108.77%
% control response (glucose-stimulated insulin secretion) [4, 7]: 145.61%
active concentration ([4]; glucose-stimulated secretion condition, active at this concentration only): 20 µM
degree of stimulation of insulin secretion [4]: 140%
stimulation of insulin secretion in the presence of glibenclamide [5]: concentration-dependently stimulated insulin secretion
maximal response, stimulation as compared to glibenclamide alone [5, 8]: 130%

O=c1oc2cc(O)ccc2c2ccc(O)cc12 [Urolithin A, urolithin A]
stimulation of insulin secretion in low-glucose condition [1]: did not significantly stimulate insulin secretion; also recorded: does not stimulate insulin secretion
raise of insulin secretion in the presence of exendin and glucose [2]: did not induce a significant raise of insulin secretion; also recorded: did not amplify exendin-stimulated insulin secretion
AUC of insulin produced above the basal level [3]: 2609.5 ng insulin secreted for 32 min
ability to amplify glucose-stimulated insulin secretion ([4]; 8.3 mmol·L^−1 glucose): able to amplify
% control response (glucose-stimulated insulin secretion) [4, 6]: 109.82%
% control response (glucose-stimulated insulin secretion) [4, 7]: 162.50%
degree of stimulation of insulin secretion [4]: about 160%
stimulation of insulin secretion in the presence of glibenclamide [5]: concentration-dependently stimulated insulin secretion
concentration at which maximal effect was obtained [5, 8]: 5 µmol/L
